From PubChem BioAssay (NCI)
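GI50 = concentration required for 50% inhibition of growth. Definition used: TGI = concentration required for complete inhibition of growth.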

Legend:
Test in all cases: NCI tumour cell line growth inhibition, 384-well format
HOP-92 NSCLC = test system: HOP-92 NSCLC
SK-MEL-28 melanoma = test system: SK-MEL-28 melanoma
LOX IMVI melanoma = test system: LOX IMVI melanoma
SF-268 CNS = test system: SF-268 CNS
MDA-MB-231 breast = test system: MDA-MB-231 breast
KM12 colon = test system: KM12 colon
K-562 leukemia = test system: K-562 leukemia
MDA-MB-435 melanoma = test system: MDA-MB-435 melanoma
EKVX NSCLC = test system: EKVX NSCLC
SK-OV-3 ovarian = test system: SK-OV-3 ovarian
OVCAR-8 ovarian = test system: OVCAR-8 ovarian
HOP-62 NSCLC = test system: HOP-62 NSCLC
T-47D breast = test system: T-47D breast
SR leukemia = test system: SR leukemia
CCRF-CEM leukemia = test system: CCRF-CEM leukemia
BT-549 breast = test system: BT-549 breast
HL-60(TB) leukemia = test system: HL-60(TB) leukemia
CAKI-1 renal = test system: CAKI-1 renal
OVCAR-3 ovarian = test system: OVCAR-3 ovarian
MCF7 breast = test system: MCF7 breast
UACC-62 melanoma = test system: UACC-62 melanoma
NCI-H322M lung = test system: NCI-H322M lung
SF-539 CNS = test system: SF-539 CNS
SN12C renal = test system: SN12C renal
OVCAR-5 ovarian = test system: OVCAR-5 ovarian
DU-145 prostate = test system: DU-145 prostate
MALME-3M melanoma = test system: MALME-3M melanoma
SNB-75 CNS = test system: SNB-75 CNS
SK-MEL-2 melanoma = test system: SK-MEL-2 melanoma
TK-10 renal = test system: TK-10 renal
RXF 393 renal = test system: RXF 393 renal
UO-31 renal = test system: UO-31 renal
NCI-H23 lung = test system: NCI-H23 lung
SNB-19 CNS = test system: SNB-19 CNS
PC-3 prostate = test system: PC-3 prostate
NCI-H522 lung = test system: NCI-H522 lung
OVCAR-4 ovarian = test system: OVCAR-4 ovarian
HT29 colon = test system: HT29 colon
NCI/ADR-RES ovarian = test system: NCI/ADR-RES ovarian
UACC-257 melanoma = test system: UACC-257 melanoma
NCI-H460 NSCLC = test system: NCI-H460 NSCLC
HCC-2998 colon = test system: HCC-2998 colon
MOLT-4 leukemia = test system: MOLT-4 leukemia
HCT-116 colon = test system: HCT-116 colon
A549 NSCLC = test system: A549 NSCLC
HCT-15 colon = test system: HCT-15 colon
SF-295 CNS = test system: SF-295 CNS

Structure (SMILES): CS(=O)(=O)N1CCN(Cc2cc3nc(-c4cccc5[nH]ncc45)nc(N4CCOCC4)c3s2)CC1
- GI50 (HOP-92 NSCLC): 0.202 µM
- TGI (HOP-92 NSCLC): 1.49 µM
- GI50 (SK-MEL-28 melanoma): 0.202 µM
- TGI (SK-MEL-28 melanoma): 4.18 µM
- GI50 (LOX IMVI melanoma): 0.827 µM
- TGI (LOX IMVI melanoma): 11.7 µM
- GI50 (SF-268 CNS): 1.51 µM
- TGI (SF-268 CNS): 23.3 µM
- GI50 (MDA-MB-231 breast): 2.13 µM
- TGI (MDA-MB-231 breast): > 100 µM
- GI50 (KM12 colon): 0.888 µM
- TGI (KM12 colon): > 100 µM
- GI50 (K-562 leukemia): 5.48 µM
- TGI (K-562 leukemia): > 100 µM
- GI50 (MDA-MB-435 melanoma): 1.18 µM
- TGI (MDA-MB-435 melanoma): 11.9 µM
- GI50 (EKVX NSCLC): 0.185 µM
- TGI (EKVX NSCLC): 2.7 µM
- GI50 (SK-OV-3 ovarian): 0.169 µM
- TGI (SK-OV-3 ovarian): 1.62 µM
- GI50 (OVCAR-8 ovarian): 1.11 µM
- TGI (OVCAR-8 ovarian): > 100 µM
- GI50 (HOP-62 NSCLC): 3.11 µM
- TGI (HOP-62 NSCLC): > 100 µM
- GI50 (T-47D breast): 0.0494 µM
- TGI (T-47D breast): 0.341 µM
- GI50 (SR leukemia): 1.53 µM
- TGI (SR leukemia): 4.01 µM
- GI50 (CCRF-CEM leukemia): 1.8 µM
- TGI (CCRF-CEM leukemia): 6.98 µM
- GI50 (BT-549 breast): 0.202 µM
- TGI (BT-549 breast): 2.03 µM
- GI50 (HL-60(TB) leukemia): 0.0463 µM
- TGI (HL-60(TB) leukemia): 0.593 µM
- GI50 (CAKI-1 renal): 0.26 µM
- TGI (CAKI-1 renal): 6.81 µM
- GI50 (OVCAR-3 ovarian): 0.28 µM
- TGI (OVCAR-3 ovarian): 4.39 µM
- GI50 (MCF7 breast): 0.0582 µM
- TGI (MCF7 breast): 16.3 µM
- GI50 (UACC-62 melanoma): 0.238 µM
- TGI (UACC-62 melanoma): 1.93 µM
- GI50 (NCI-H322M lung): 0.442 µM
- TGI (NCI-H322M lung): 5.32 µM
- GI50 (SF-539 CNS): 0.446 µM
- TGI (SF-539 CNS): > 100 µM
- GI50 (SN12C renal): 0.328 µM
- TGI (SN12C renal): 67.2 µM
- GI50 (OVCAR-5 ovarian): 0.553 µM
- TGI (OVCAR-5 ovarian): > 100 µM
- GI50 (DU-145 prostate): 0.581 µM
- TGI (DU-145 prostate): > 100 µM
- GI50 (MALME-3M melanoma): 0.223 µM
- TGI (MALME-3M melanoma): 3.03 µM
- GI50 (SNB-75 CNS): 0.102 µM
- TGI (SNB-75 CNS): 0.533 µM
- GI50 (SK-MEL-2 melanoma): 7.04 µM
- TGI (SK-MEL-2 melanoma): > 100 µM
- GI50 (TK-10 renal): 0.203 µM
- TGI (TK-10 renal): 1.12 µM
- GI50 (RXF 393 renal): 0.152 µM
- TGI (RXF 393 renal): 0.638 µM
- GI50 (UO-31 renal): 0.478 µM
- TGI (UO-31 renal): 9.8 µM
- GI50 (NCI-H23 lung): 0.57 µM
- TGI (NCI-H23 lung): 18.6 µM
- GI50 (SNB-19 CNS): 4.38 µM
- TGI (SNB-19 CNS): > 100 µM
- GI50 (PC-3 prostate): 0.165 µM
- TGI (PC-3 prostate): 7.73 µM
- GI50 (NCI-H522 lung): 0.391 µM
- TGI (NCI-H522 lung): 7.58 µM
- GI50 (OVCAR-4 ovarian): 1.38 µM
- TGI (OVCAR-4 ovarian): 41.2 µM
- GI50 (HT29 colon): 0.744 µM
- TGI (HT29 colon): 14.7 µM
- GI50 (NCI/ADR-RES ovarian): 1.7 µM
- TGI (NCI/ADR-RES ovarian): 49.9 µM
- GI50 (UACC-257 melanoma): 2.33 µM
- TGI (UACC-257 melanoma): > 100 µM
- GI50 (NCI-H460 NSCLC): 0.206 µM
- TGI (NCI-H460 NSCLC): 47.9 µM
- GI50 (HCC-2998 colon): 0.723 µM
- TGI (HCC-2998 colon): 14.3 µM
- GI50 (MOLT-4 leukemia): 0.0822 µM
- TGI (MOLT-4 leukemia): 0.363 µM
- GI50 (HCT-116 colon): 1.93 µM
- TGI (HCT-116 colon): > 100 µM
- GI50 (A549 NSCLC): 0.533 µM
- TGI (A549 NSCLC): > 100 µM
- GI50 (HCT-15 colon): 0.708 µM
- TGI (HCT-15 colon): 24.1 µM
- GI50 (SF-295 CNS): 0.454 µM
- TGI (SF-295 CNS): 3.59 µM
